Values joined by “and” are separate entries in the source; they are usually repeats but may differ in a detail not shown here. Equal values may be shown once. Positions of bridges follow the written chain, without caps; N, C: chain ends. Non-standard residues stand in square brackets, D forms with d. Residues, ends and D or L forms follow the SMILES beside them. No end group written: not given here. *: point of attachment. PhAc = O=C(Cc1ccccc1)*
Experiments:
[1] = Retention of potency in PBS containing 10 percent mouse or human serum; format: in vitro ADME; settings: PBS at 7.2-7.4 containing 10 percent mouse or human serum
VLA-4 [2] = molecular target: T1, VLA-4 (Homo sapiens, UniProt P05556+P13612); assay: In vitro binding assay: 51Cr-labeled Jurkat cells to solid phase-bound CS-1 peptide (SEQ ID NO:5); format: cell-based; design: inflammatory cells that contain the VLA-4 receptor [Jurkat cells; host or cells: Jurkat cells (human T lymphoblastic line); settings: for Relative Potency: Jurkat cells, CS-1; for CS-1 inhibition potencies relative to each other: ratio XLDFZ:XLDFp:SEQ ID NO:7, XLDFp = 1; for Potency in inhibiting Jurkat cell binding to CS-1 relative to standard 10-mer of SEQ ID NO:6: times/fold more potent than SEQ ID NO:6
T1 sequence (P13612 34-1032): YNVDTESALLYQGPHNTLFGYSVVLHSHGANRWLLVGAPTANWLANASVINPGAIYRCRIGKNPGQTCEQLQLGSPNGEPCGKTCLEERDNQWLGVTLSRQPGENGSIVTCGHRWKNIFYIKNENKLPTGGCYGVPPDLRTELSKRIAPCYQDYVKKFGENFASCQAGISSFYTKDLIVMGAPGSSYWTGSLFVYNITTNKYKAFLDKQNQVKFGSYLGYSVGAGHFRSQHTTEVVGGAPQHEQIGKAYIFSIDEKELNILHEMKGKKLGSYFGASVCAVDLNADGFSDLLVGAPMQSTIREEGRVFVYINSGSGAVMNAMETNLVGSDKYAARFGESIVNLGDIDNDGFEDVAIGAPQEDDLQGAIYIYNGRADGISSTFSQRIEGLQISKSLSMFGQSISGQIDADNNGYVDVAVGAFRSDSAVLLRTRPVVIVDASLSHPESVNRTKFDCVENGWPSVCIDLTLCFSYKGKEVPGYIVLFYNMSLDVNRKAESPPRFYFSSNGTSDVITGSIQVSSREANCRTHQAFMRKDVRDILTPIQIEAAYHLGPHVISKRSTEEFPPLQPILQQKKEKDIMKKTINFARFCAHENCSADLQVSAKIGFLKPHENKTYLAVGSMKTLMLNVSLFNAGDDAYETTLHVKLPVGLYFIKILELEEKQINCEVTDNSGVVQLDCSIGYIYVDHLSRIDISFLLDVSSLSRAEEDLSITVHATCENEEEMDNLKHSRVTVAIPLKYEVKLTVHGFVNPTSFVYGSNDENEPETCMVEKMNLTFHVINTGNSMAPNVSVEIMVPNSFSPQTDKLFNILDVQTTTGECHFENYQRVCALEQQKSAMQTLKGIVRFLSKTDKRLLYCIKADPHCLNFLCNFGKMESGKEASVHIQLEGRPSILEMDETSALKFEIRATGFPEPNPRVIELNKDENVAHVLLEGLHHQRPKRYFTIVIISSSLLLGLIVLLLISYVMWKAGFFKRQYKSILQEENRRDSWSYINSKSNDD
T1 sequence (P05556 21-798): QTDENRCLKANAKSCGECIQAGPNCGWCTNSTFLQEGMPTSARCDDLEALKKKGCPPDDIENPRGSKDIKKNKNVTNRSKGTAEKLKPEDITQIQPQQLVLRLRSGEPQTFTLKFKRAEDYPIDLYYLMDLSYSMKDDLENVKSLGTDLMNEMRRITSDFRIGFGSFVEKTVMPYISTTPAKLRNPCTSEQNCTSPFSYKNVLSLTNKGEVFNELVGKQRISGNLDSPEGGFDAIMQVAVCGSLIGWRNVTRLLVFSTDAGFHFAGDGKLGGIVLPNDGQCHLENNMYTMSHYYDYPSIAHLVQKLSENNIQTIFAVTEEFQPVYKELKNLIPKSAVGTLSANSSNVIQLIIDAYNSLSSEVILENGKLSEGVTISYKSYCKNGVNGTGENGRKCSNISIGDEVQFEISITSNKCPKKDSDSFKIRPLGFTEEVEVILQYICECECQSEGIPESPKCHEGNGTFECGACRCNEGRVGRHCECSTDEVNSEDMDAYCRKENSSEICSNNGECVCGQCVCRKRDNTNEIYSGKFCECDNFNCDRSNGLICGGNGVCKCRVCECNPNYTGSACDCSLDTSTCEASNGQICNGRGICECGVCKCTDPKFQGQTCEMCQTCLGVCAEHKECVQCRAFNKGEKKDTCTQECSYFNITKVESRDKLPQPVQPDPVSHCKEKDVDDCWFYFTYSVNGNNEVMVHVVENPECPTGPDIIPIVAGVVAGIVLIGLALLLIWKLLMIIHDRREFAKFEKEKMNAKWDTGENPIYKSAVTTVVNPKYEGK
Procedure: Binding inhibition is measured here as a concentration of peptide that inhibits one-half the binding between a standard number of Jurkat cells and a standard amount of CS-1 peptide bound to the surface of a microtiter plate well. Those concentrations are conveniently expressed as IC50 values, smaller numbers indicating a lower concentration required to inhibit 50 percent binding and therefore greater potency. Further specifics of this assay are provided hereinafter.
Jurkat cells (ATCC TIB 152), a human T lymphoblastic line, labeled with ^51 chromium were used to assay in vitro binding inhibition provided by various peptides discussed herein.
The plates were prepared as follows: The 25-mer CS-1 peptide (SEQ ID NO:5) dissolved at 0.5-1 μg/ml in a buffer of 0.1M NaHCO3 at pH 9.5 that also contained 10 μg/ml of bovine serum albumin (BSA) or a conjugate of the CS-1 peptide linked to ovalbumin (CS-1-OVA) dissolved at 1-2.5 μg/ml in the same buffer was used as the substrate. Each well of the microtiter plates was coated with 50 μl of substrate or buffer alone for controls. The wells were permitted to dry out completely and were then rinsed twice with PBS at pH 7.4. Non-specific binding sites of each well were then blocked using 200 μl per well of RPMI/1 percent BSA for two hours at room temperature. Both solid phase-affixed substrates provided similar results.
Jurkat cells (3-5×10^6 cells) were placed into a 15 ml FALCON™ round-bottom tube with a cap. The tube was centrifuged, and the extra medium was then removed.
Two hundred microliters of a ^51 Cr labeling solution were added to the centrifuged cells and maintained in contact with the cells for 90-120 minutes in a warm room. This procedure typically provides about 50,000-100,000 cpm/well with about 80-100 percent cell viability. Longer contact times provide a greater amount of labeling but lower cell viability.
The labeled cells were washed with (i) complete medium, (ii) 1mM EDTA/PBS and then (iii) RPM1/1 percent BSA free of serum components. The cells were centrifuged after each washing. The cells were finally resuspended in serum-free RPMI/1 percent BSA at a concentration of 1×10^6 viable cells/ml, which provides a concentration that is diluted by one-half in the assay.
Cyclic inhibitor peptides were prepared as stock solutions at 20 mg/ml in DMSO in 1.5 ml cryogenic screwcap vials, and were stored at -70° C. Using FLOW™ round-bottom or V-bottom microtiter plates, the inhibitor peptides were prepared at twice the assay concentration in RPMI/1 percent BSA at 60 μl/well.
Four initial dilutions were typically used.
The ^51 Cr-labeled cells (1×10^6 cells at 60 μl/well) were then admixed with the diluted cyclic peptide solutions. The admixtures were maintained at room temperature (about 22° C.) for 30 minutes.
One hundred microliters of each inhibitor peptide/cell admixture were transferred to the substrate-coated wells. This was done in triplicate for each dilution. The resulting plates were incubated for 30 minutes at 37° C. and then washed gently three times with RPMI/1 percent BSA at 200 μl/well. Binding was observed microscopically, particularly after the second wash.
The bound cells were then lysed by the addition of a 0.5 percent solution of sodium dodecylsulfate in water at 100 μl/well. The resulting solutions were then processed for counting and calculation of IC50 values following usual procedures. Appropriate positive and negative controls were used with each plate so that the results of separate assays could be normalized and compared.
The potency data of Table 1 and Table 2 are so normalized. The absolute IC50 value for the peptide of SEQ ID NO:7 is 0.3 μM.

VLA-4/sVCAM-1 = molecular target: T2, VLA-4/sVCAM-1 (Homo sapiens, UniProt P05556+P13612); assay: In vitro binding assay: Jurkat cells to solid phase-bound sVCAM-1; format: cell-based; settings: for relative potencies for inhibiting Jurkat cell binding to solid phase-bound sVCAM-1: compared against each other, XLDFp = 1
T2 construct: host or cells: Jurkat cells carry the VLA-4; The sVCAM-1 partner was made in house in transfected human embryonal kidney 293 cells (ATCC CRL 1573)
T2 sequence (P13612 34-1032): as the sequence (P13612 34-1032) above
T2 sequence (P05556 21-798): as the sequence (P05556 21-798) above
Procedure: Assays conducted using sVCAM-1 as solid phase-bound antigen were carried out substantially identically to those using CS-1. The sVCAM-1 polypeptide used had the same amino acid residue sequence as the materials described in Lobb et al., Biochem. Biophys. Res. Commun., 178:1498-1504 (1991) and Cybulsky et al., Proc. Natl. Acad. Sci., USA, 88:7859-7863 (1991). Human embryonal kidney line 293 (ATCC CRL 1573) cells were co-transfected with a plasmid (pCDNAI;invitrogen) containing the sVCAM-1 DNA sequence and plasmid pSV2-neo [Southern et al., J. Mol. Appl. Gen., 1:327-341 ([…])]. Cells were selected in DMEM, 10 percent fetal bovine serum and 600 μg/ml Geneticin. sVCAM-1 was purified from supernatants using a column containing monoclonal antibody P3H12 (anti-human VCAM-1) coupled to Sepharose 4B. The sVCAM-1 was eluted using 0.1M glycine at pH 2.5 following 50 column washes with PBS, pH 7.2. The eluate was immediately neutralized and dialyzed against PBS for use.

VLA-4 [3] = molecular target: T1, VLA-4; settings: cited from earlier work
[4] = Table 1, normalized IC50 potency relative to standard peptide SEQ ID NO:6 (=1)
[5] = Table 2, normalized IC50 potency relative to standard peptide SEQ ID NO:6

Compound	Relative Potency (VLA-4 [2]; [4])	Relative Potency (VLA-4 [2]; [5])	further results
NC(=O)[C@@H]1CSSC[C@H](NC(=O)Cc2ccccc2)C(=O)N[C@@H](CC(=O)O)C(=O)N[C@@H](Cc2ccccc2)C(=O)N1 [SEQ ID NO:7, .phi.AcCDFC-NH2] (PhAc-CDFC-NH2; disulfide 1-4)	526	–	loss of potency in serum-containing buffer [1]: no loss of potency after 24 hours; potency relative to the best linear peptide (XLDFZ) for inhibiting Jurkat cell binding to CS-1 (VLA-4 [2]): about two-thirds the potency; CS-1 inhibition potencies relative to each other (VLA-4 [2]): ~1.8; Potency in inhibiting Jurkat cell binding to CS-1 relative to standard 10-mer of SEQ ID NO:6 (VLA-4 [2]): 500-600 and ~563; potency relative to the best linear peptide (XLDFZ) as inhibitor of Jurkat cell binding to sVCAM-1 (VLA-4/sVCAM-1): about 3 times; relative potencies for inhibiting Jurkat cell binding to solid phase-bound sVCAM-1 (VLA-4/sVCAM-1): ~3.8
CC(C)C[C@@H]1NC(=O)[C@@H](N)CSSC[C@@H](C(N)=O)NC(=O)[C@H](Cc2ccccc2)NC(=O)[C@H](CC(=O)O)NC1=O [SEQ ID NO:28, CLDFC -NH2] (H-CLDFC-NH2; disulfide 1-5)	1	–	–
CC(=O)N[C@@H](Cc1ccccc1)C(=O)N[C@H]1CSSC[C@@H](C(=O)N2CCC[C@H]2C(N)=O)NC(=O)[C@H](CC(=O)O)NC1=O [SEQ ID NO:29, AcFCDCP-NH2] (Ac-FCDCP-NH2; disulfide 2-4)	1	–	–
NC(=O)[C@@H]1CCCN1C(=O)[C@@H]1CSSC[C@H](NC(=O)[C@@H](N)Cc2ccccc2)C(=O)N[C@@H](CC(=O)O)C(=O)N1 [SEQ ID NO:30, FCDCP-NH2] (H-FCDCP-NH2; disulfide 2-4)	< 1	–	–
CC(C)C[C@@H]1NC(=O)[C@H](CCC(=O)O)NC(=O)[C@@H]2CCCN2C(=O)[C@@H](N)CSSC[C@@H](C(N)=O)NC(=O)[C@H](CO)NC(=O)[C@@H]2CCCN2C(=O)[C@H](Cc2ccccc2)NC(=O)[C@H](CC(=O)O)NC1=O [SEQ ID NO:33, CPELDFPSC-NH2] (H-CPELDFPSC-NH2; disulfide 1-9)	31	–	–
CC(C)C[C@H](NC(=O)Cc1ccccc1)C(=O)N[C@@H](CC(=O)O)C(=O)N[C@@H](Cc1ccccc1)C(=O)N1CCC[C@@H]1C(N)=O [XLDFp, .phi.Ac-LeuAspPhe-D-Pro-NH2, reference compound] (PhAc-LDF[dP]-NH2)	–	–	CS-1 inhibition potencies relative to each other (VLA-4 [2]): ~1; Potency in inhibiting Jurkat cell binding to CS-1 relative to standard 10-mer of SEQ ID NO:6 (VLA-4 [2]): ~313; relative potencies for inhibiting Jurkat cell binding to solid phase-bound sVCAM-1 (VLA-4/sVCAM-1): ~1
CC(C)C[C@@H]1NC(=O)[C@H](Cc2ccccc2)NC(=O)[C@@H](N)CSSC[C@@H](C(N)=O)NC(=O)[C@@H]2CCCN2C(=O)[C@H](Cc2ccccc2)NC(=O)[C@H](CC(=O)O)NC1=O [drawing 7] (H-CFLDFPC-NH2; disulfide 1-7)	–	254	–
CC(=O)N[C@H]1CSSC[C@@H](C(N)=O)NC(=O)[C@@H]2CCCN2C(=O)[C@H](Cc2ccccc2)NC(=O)[C@H](CC(=O)O)NC(=O)[C@H](CC(C)C)NC(=O)[C@H](Cc2ccccc2)NC1=O [drawing 10] (Ac-CFLDFPC-NH2; disulfide 1-7)	–	135	–
NC(=O)[C@@H]1CSSC[C@H](NC(=O)[C@@H](N)Cc2ccccc2)C(=O)N[C@@H](CC(=O)O)C(=O)N[C@@H](Cc2ccccc2)C(=O)N2CCC[C@H]2C(=O)N1 [drawing 11] (H-FCDFPC-NH2; disulfide 2-6)	–	131	–
CC(C)C[C@@H]1NC(=O)[C@H](Cc2ccccc2)NC(=O)[C@@H](N)CSSC[C@@H](C(N)=O)NC(=O)[C@H](CO)NC(=O)[C@@H]2CCCN2C(=O)[C@H](Cc2ccccc2)NC(=O)[C@H](CC(=O)O)NC1=O [drawing 12] (H-CFLDFPSC-NH2; disulfide 1-8)	–	122	–
CC(=O)N[C@@H](Cc1ccccc1)C(=O)N[C@H]1CSSC[C@@H](C(N)=O)NC(=O)[C@H](Cc2ccccc2)NC(=O)[C@H](CC(=O)O)NC1=O [drawing 21] (Ac-FCDFC-NH2; disulfide 2-5)	–	52.6	–
CC(C)C[C@@H]1NC(=O)[C@H](Cc2ccccc2)NC(=O)[C@H](CCC(=O)O)NC(=O)[C@@H]2CCCN2C(=O)[C@@H](N)CSSC[C@@H](C(N)=O)NC(=O)[C@@H]2CCCN2C(=O)[C@H](Cc2ccccc2)NC(=O)[C@H](CC(=O)O)NC1=O [drawing 23] (H-CPEFLDFPC-NH2; disulfide 1-9)	–	31.3	–
CC(C)C[C@@H]1NC(=O)[C@H](Cc2ccccc2)NC(=O)[C@H](CCC(=O)O)NC(=O)[C@@H](N)CSSC[C@@H](C(N)=O)NC(=O)[C@@H]2CCCN2C(=O)[C@H](Cc2ccccc2)NC(=O)[C@H](CC(=O)O)NC1=O [drawing 26] (H-CEFLDFPC-NH2; disulfide 1-8)	–	18.8	–
CC(C)C[C@@H]1NC(=O)[C@H](Cc2ccccc2)NC(=O)[C@H](CCC(=O)O)NC(=O)[C@@H]2CCCN2C(=O)CNC(=O)[C@@H](N)CSSC[C@@H](C(N)=O)NC(=O)[C@H](Cc2ccccc2)NC(=O)[C@H](CC(=O)O)NC1=O [drawing 30] (H-CGPEFLDFC-NH2; disulfide 1-9)	–	9.39	–
CC(C)C[C@@H]1NC(=O)[C@H](Cc2ccccc2)NC(=O)[C@H](CCC(=O)O)NC(=O)[C@@H](N)CSSC[C@@H](C(N)=O)NC(=O)[C@H](CO)NC(=O)[C@@H]2CCCN2C(=O)[C@H](Cc2ccccc2)NC(=O)[C@H](CC(=O)O)NC1=O [drawing 34] (H-CEFLDFPSC-NH2; disulfide 1-9)	–	6.26	–
CC(C)C[C@@H]1NC(=O)[C@H](Cc2ccccc2)NC(=O)[C@H](CCC(=O)O)NC(=O)[C@@H]2CCCN2C(=O)[C@@H](N)CSSC[C@@H](C(N)=O)NC(=O)[C@H](CO)NC(=O)[C@@H]2CCCN2C(=O)[C@H](Cc2ccccc2)NC(=O)[C@H](CC(=O)O)NC1=O [drawing 35] (H-CPEFLDFPSC-NH2; disulfide 1-10)	–	6.26	–
NC(=O)[C@@H]1CSSC[C@H](NC(=O)[C@@H](N)Cc2ccccc2)C(=O)N[C@@H](CC(=O)O)C(=O)N[C@@H](Cc2ccccc2)C(=O)N1 [drawing 39] (H-FCDFC-NH2; disulfide 2-5)	–	2.52	–
ILDFP-NH2 [SEQ ID NO:27, ILDFP-NH2]	2	–	–
ILDVPILDVP-NH2 [SEQ ID NO:26, ILDVPILDVP-NH2]	2	–	–
Leu-Asp-Val [LDV]	–	–	affinity of VLA-4 compared with native CS-1 25-mer (VLA-4 [3]): at least two orders of magnitude lower affinity
SFDFS-NH2 [SEQ ID NO:31, SFDFS-NH2]	< 1	–	–
